Assay results reported in publication PMC4579270, “Identification and Characterization of an Irreversible Inhibitor of CDK2” (Chemistry & Biology, 2015).
Read-outs that look alike come from different tables or passages of the source.

Legend:
[1] = molecular target: BRSK1 (Homo sapiens, UniProt Q8TDC3); experiment: Dundee protein kinase screen; format: biochemical; conditions: BRSK1, 1µM; read-out: %Remaining activity at 1µM NU6300
Protocol: (§1) Prior to determining its cellular activity, we carried out a screen to assess its selectivity against a panel of 131 protein kinases under conditions that would not distinguish between a reversible or irreversible mode of action. […] These 13 kinases and 29 additional kinases, selected for their known sensitivity to other inhibitors within the purine series, were then tested in a modified screening format in which the assay was repeated following a 4-hr pre-incubation (Table S3B). […] However, conformational flexibility around the active site may promote such an interaction with a residue from another part of the structure ([Martin et al., 2012]).
(§2) Table S3, Related to Figure 4. NCL-0006300 protein kinase selectivity. (A) NU6300 was tested at a single concentration of 1µM against 131 protein kinases present in a Dundee protein kinase screen (Bain et al., 2007). Values given are % activity remaining and are the average of duplicate measurements: 0-25% (red), 26-50% (yellow), 51-80% (black) and above 81% (green). The kinase domain sequences (as defined by UniProt) of […]
(§3) have a lysine residue at a position close to CDK2 Lys88 or Lys89. However, in the structure of tyrosine-protein kinase BTK (PDB ID: 3GEN) the residue equivalent to CDK2 Asp86 is Cys481 and therefore there is the potential for a covalent adduct to be formed through this side chain. Ephrin type-B receptor 3 (UniProt entry P54753) also encodes a cysteine residue (Cys717) that by sequence alignment would be predicted to be close to the CDK2 lysine pair. (B) Selected kinases were re-tested in the Dundee kinase screen against NU6300 at a single concentration of 0.5 µM both in the standard assay format and following a 4 hour pre-incubation in the presence of NU6300. Kinases which have very low activity after the 4 hour incubation so that results might not be wholly reliable are boxed in salmon. Kinases where the activity after a 4 hour pre-incubation is < 50% that in the standard assay format are highlighted in red.

[2] = molecular target: FGF-R1 (Homo sapiens, UniProt P11362); experiment: Dundee protein kinase screen; format: biochemical; conditions: FGF-R1, 1µM; read-out: %Remaining activity at 1µM NU6300
Protocol: as §1, §2, §3

[3] = molecular target: SGK1 (Homo sapiens, UniProt O00141); experiment: Dundee protein kinase screen; format: biochemical; conditions: SGK1, 1µM; read-out: %Remaining activity at 1µM NU6300
Protocol: as §1, §2, §3

[4] = molecular target: Aurora B (Homo sapiens, UniProt Q96GD4); experiment: Dundee kinase screen re-test (standard format and 4 hour pre-incubation); format: biochemical
Protocol: as §1, §2, §3

[5] = molecular target: IRAK1 (Homo sapiens, UniProt P51617); experiment: as above; format: biochemical; conditions: IRAK1, 0.5µM
Protocol: as §1, §2, §3

[6] = molecular target: MARK1 (Homo sapiens, UniProt Q9P0L2); experiment: as above; format: biochemical; conditions: MARK1, 0.5µM
Protocol: as §1, §2, §3

[7] = molecular target: PAK5 (Homo sapiens, UniProt Q9P286); experiment: as above; format: biochemical; conditions: PAK5, 0.5µM
Protocol: as §1, §2, §3

[8] = molecular target: PRK2 (Homo sapiens, UniProt Q16513); experiment: as above; format: biochemical; conditions: PRK2, 0.5µM
Protocol: as §1, §2, §3

[9] = molecular target: CDK2-Cyclin A (Homo sapiens, UniProt P24941); experiment: ESI-MS of covalent adduct; parameters: made in house; host or cells: Escherichia coli (CDK2 co-expressed with S. cerevisiae CAK1); conditions: wild-type CDK2/cyclin A, overnight incubation, vs control
Protocol: To determine whether NU6300 binds covalently to CDK2, recombinant CDK2/cyclin A was incubated overnight with NU6300 and then analyzed by electrospray ionization mass spectrometry (ESI-MS) (Figure S1A). […]
Protein expression and purification
Site-directed mutagenesis of CDK2 was performed using the QuikChange II kit (Stratagene) following the manufacturer’s instructions and verified by DNA sequencing.
Wild-type CDK2 phosphorylated at Thr160, untagged human cyclin A2 (residues 174-432), S. cerevisiae GST–CAK, GST–3C-protease and GST–pRb (residues 792–928) were expressed and purified as previously described (Brown et al., 1999a; Brown et al., 1999b; Welburn and Endicott, 2005). GST-CDK2 mutants were expressed and purified as described (Welburn and Endicott, 2005) and subsequently phosphorylated in vitro by GST-CAK essentially as described in (Morris et al., 2002) except that multiple CAK aliquots were required to enhance the levels of CDK2 Thr160 phosphorylation. […]
CDK2/cyclin A (200 µM) was incubated overnight with 1 mM inhibitor or DMSO, and then dialysed for 8 h with regular replacement of dialysis buffer into HEPES-buffered saline (50 mM HEPES, pH 7.5, 250 mM NaCl, 0.02% MTG). […] Reactions were stopped by addition of SDS-PAGE loading buffer and analyzed by SDS-PAGE. […]

[10] = 4hr RT preincubation, read-out: %Remaining activity at 0.5µM NU6300 - 4hr RT preincubation
[11] = usual format, read-out: %Remaining activity at 0.5µM NU6300 - Usual assay format

IRAK1, sequence (P51617 whole entry): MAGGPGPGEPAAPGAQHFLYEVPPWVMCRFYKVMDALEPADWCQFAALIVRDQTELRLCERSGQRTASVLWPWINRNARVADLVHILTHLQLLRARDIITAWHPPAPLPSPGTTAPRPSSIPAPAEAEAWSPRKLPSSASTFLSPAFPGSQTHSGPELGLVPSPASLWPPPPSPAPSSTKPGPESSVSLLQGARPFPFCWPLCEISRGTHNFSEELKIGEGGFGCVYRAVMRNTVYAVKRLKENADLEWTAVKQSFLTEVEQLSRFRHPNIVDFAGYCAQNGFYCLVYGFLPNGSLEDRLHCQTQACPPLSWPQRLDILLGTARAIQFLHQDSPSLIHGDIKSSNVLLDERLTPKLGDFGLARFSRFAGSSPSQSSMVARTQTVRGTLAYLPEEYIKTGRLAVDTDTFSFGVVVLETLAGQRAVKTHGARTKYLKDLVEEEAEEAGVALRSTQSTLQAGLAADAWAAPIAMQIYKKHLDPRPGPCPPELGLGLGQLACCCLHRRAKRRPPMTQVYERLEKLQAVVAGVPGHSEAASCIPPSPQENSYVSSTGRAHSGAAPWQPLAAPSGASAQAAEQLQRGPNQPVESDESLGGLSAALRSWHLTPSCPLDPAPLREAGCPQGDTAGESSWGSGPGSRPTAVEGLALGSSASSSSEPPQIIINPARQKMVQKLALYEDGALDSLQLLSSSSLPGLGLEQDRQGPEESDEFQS
MARK1, sequence (Q9P0L2 whole entry): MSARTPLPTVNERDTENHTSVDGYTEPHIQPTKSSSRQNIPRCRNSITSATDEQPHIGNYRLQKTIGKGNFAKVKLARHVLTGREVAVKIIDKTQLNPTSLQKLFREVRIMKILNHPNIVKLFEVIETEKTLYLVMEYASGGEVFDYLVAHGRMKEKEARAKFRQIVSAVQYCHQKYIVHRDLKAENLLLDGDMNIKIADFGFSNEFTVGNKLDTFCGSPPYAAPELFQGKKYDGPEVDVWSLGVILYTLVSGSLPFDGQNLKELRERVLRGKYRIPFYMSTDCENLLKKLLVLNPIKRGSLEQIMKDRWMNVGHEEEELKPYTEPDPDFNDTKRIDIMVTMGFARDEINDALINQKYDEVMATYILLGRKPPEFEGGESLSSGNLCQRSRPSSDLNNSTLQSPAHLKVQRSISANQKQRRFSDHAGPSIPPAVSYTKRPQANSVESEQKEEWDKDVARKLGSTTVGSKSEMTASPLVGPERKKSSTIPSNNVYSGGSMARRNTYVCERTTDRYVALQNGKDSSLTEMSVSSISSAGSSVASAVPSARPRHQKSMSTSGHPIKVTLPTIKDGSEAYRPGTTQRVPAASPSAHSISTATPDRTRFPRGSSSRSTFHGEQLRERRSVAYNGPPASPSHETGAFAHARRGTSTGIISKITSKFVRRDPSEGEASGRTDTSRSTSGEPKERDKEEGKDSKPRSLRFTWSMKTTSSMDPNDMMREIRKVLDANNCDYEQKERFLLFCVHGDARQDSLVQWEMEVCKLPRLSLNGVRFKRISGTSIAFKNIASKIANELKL
PRK2, sequence (Q16513 whole entry): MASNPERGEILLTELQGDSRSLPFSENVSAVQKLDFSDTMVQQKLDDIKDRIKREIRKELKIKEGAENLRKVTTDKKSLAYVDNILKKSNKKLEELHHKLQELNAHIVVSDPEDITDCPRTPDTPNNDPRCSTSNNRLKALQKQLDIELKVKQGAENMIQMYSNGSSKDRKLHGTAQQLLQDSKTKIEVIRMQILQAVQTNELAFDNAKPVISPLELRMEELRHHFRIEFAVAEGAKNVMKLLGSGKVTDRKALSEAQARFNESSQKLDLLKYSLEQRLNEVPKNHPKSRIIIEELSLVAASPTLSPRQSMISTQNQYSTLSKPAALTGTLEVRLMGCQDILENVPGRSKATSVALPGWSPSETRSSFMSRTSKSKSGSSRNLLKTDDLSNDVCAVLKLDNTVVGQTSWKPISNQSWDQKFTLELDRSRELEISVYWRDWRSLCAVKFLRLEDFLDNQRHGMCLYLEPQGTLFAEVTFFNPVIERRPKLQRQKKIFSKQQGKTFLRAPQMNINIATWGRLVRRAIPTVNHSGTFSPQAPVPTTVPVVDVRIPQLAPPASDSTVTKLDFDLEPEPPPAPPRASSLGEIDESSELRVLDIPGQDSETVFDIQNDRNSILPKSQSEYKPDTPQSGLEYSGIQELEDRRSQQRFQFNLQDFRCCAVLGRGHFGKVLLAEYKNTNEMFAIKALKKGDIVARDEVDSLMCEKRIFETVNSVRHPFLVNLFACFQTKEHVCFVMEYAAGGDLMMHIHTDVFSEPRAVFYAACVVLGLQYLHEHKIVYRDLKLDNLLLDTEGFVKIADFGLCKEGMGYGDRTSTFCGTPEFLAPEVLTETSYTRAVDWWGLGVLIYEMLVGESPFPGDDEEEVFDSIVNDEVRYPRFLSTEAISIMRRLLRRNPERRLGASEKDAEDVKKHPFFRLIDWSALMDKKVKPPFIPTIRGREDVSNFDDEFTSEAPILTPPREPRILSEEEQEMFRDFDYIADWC
Aurora B, sequence (Q96GD4 whole entry): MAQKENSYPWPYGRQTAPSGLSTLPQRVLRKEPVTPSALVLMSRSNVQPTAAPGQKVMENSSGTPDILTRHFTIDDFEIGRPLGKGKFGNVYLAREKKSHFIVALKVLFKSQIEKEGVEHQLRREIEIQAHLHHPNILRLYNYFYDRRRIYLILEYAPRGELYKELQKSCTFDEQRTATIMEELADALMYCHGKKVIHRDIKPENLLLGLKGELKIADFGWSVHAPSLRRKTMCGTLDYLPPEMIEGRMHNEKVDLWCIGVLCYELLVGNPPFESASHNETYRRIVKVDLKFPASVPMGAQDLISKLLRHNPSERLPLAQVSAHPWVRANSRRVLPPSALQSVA
PAK5, sequence (Q9P286 whole entry): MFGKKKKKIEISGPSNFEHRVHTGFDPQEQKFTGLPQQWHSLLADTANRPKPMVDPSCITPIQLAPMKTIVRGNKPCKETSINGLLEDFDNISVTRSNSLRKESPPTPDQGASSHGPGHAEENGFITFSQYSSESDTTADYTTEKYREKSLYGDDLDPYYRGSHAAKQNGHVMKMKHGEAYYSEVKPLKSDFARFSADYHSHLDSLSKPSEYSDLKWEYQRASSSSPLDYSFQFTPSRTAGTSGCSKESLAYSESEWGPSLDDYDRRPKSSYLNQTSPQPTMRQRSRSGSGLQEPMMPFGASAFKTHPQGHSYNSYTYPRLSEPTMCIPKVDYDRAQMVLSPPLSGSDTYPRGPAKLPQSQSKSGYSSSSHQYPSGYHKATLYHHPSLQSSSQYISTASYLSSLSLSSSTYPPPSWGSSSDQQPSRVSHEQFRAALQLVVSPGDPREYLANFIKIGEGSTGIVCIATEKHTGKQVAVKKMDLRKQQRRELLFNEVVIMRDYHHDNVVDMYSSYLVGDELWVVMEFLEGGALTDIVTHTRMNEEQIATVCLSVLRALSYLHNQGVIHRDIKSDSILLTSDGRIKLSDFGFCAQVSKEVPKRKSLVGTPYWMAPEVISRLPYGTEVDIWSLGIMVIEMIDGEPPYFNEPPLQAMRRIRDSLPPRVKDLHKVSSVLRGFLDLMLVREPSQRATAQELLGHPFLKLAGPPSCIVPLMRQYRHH
SGK1, sequence (O00141 whole entry): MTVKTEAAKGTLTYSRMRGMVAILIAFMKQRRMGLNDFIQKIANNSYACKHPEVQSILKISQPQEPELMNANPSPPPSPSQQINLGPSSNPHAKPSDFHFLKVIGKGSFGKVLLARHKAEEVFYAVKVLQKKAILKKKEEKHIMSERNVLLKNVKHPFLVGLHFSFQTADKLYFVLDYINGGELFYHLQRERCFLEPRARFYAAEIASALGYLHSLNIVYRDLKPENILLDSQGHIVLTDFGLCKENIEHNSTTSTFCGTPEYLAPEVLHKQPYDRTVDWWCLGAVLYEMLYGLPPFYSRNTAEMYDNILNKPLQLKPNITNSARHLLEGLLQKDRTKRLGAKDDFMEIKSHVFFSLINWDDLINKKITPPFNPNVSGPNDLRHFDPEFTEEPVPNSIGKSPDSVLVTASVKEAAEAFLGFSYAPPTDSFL
FGF-R1, sequence (P11362 22-822): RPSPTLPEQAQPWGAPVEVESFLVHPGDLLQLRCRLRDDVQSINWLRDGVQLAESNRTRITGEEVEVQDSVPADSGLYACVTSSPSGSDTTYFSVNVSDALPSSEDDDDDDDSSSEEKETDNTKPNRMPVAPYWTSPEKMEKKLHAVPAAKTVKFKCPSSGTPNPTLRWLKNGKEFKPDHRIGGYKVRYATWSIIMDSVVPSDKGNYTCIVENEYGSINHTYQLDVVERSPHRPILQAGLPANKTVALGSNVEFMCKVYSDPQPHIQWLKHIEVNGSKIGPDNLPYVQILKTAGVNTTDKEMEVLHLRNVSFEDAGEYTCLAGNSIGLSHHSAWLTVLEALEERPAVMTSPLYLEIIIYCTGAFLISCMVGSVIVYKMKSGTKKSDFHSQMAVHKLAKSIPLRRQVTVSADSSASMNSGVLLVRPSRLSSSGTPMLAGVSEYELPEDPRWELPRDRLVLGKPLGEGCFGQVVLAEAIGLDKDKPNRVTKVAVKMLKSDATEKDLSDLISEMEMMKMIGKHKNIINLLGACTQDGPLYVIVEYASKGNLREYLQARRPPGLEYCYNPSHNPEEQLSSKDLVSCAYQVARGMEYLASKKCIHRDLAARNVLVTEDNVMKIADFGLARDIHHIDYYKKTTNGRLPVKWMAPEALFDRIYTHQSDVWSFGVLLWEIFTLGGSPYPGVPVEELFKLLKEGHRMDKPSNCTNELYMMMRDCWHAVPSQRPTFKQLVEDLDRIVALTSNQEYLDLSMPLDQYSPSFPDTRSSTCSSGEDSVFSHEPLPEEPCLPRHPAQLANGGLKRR

C=CS(=O)(=O)c1ccc(Nc2nc(OCC3CCCCC3)c3nc[nH]c3n2)cc1 [NU6300, 6-(cyclohexylmethoxy)-N-(4-(vinylsulfonyl)phenyl)-9H-purin-2-amine]
remaining activity at 1 µM [1]: 79%
remaining activity at 1 µM [2]: 62%
remaining activity at 1 µM [3]: 93%
remaining activity at 0.5 µM [4, 10]: 87%
remaining activity at 0.5 µM [4, 11]: 43%
remaining activity at 0.5 µM [5, 10]: 38%
remaining activity at 0.5 µM [5, 11]: 64%
remaining activity at 0.5 µM [6, 10]: 38%
remaining activity at 0.5 µM [6, 11]: 37%
remaining activity at 0.5 µM [7, 10]: 53%
remaining activity at 0.5 µM [7, 11]: 76%
remaining activity at 0.5 µM [8, 10]: 84%
remaining activity at 0.5 µM [8, 11]: 65%
increase in the mass of CDK2 (ESI-MS) [9]: 414 Da
